Article PMC8053501 (Diabetes, Metabolic Syndrome and Obesity: Targets and …, 2021)
Where two headings read alike, the source gives them in different places.

Assays:
in vivo = details: male, ICR, mouse, po; for Cmax / half-life: oral gavage; for half-life: t1/2, mouse
[1] = normal mice, oral gavage, 3mg/kg
[2] = test system: diabetes mellitus patients; experiment: Acute kidney injury; format: in vivo, human; details: for Association with AKI, Unadjusted (95% CI) / Association with AKI, Adjusted (95% CI): metformin as reference; for Association with AKI, Adjusted (95% CI): multivariate; for Events During the 90 days (AKI): primary endpoint, first 90 days, patients above 55 years; for Total endpoint (AKI events): primary plus secondary endpoint; for Events at secondary end (AKI): secondary endpoint, after 90 days of hospital admission; for Total Percent (incidence rate of AKI at the end of the study): share of the 4966 total outcomes
[3] = Endpoint Diagnosis with 1047 Outcome
[4] = Secondary Diagnosis with 3919 Outcomes

## OC[C@H]1O[C@@H](c2ccc(Cl)c(Cc3ccc(O[C@H]4CCOC4)cc3)c2)[C@H](O)[C@@H](O)[C@@H]1O [Jardiance]
In vivo
  Tmax: 1 h
In vivo; 3 mg/kg
  Tmax: 1 h
In vivo; 3 mg/kg, Kidney
  Cmax: 1740 ng/mL
  half-life: 2.1 h
In vivo; 3 mg/kg, Liver
  Cmax: 1150 ng/mL
  half-life: 2.2 h
In vivo; 3 mg/kg, Plasma
  Cmax: 412 ng/mL
  half-life: 1.8 h
[1]; Kidney, 0h
  Drug concentration, time course: 0
[1]; Kidney, 3h
  Drug concentration, time course: 1800
[1]; Kidney, 6h
  Drug concentration, time course: 1200
[1]; Kidney, 9h
  Drug concentration, time course: 550
[1]; Kidney, 12h
  Drug concentration, time course: 100
[1]; Kidney, 15h
  Drug concentration, time course: 0
[1]; Kidney, 18h
  Drug concentration, time course: 0
[1]; Kidney, 21h
  Drug concentration, time course: 0
[1]; Kidney, 24h
  Drug concentration, time course: 0
[1]; Liver, 0h
  Drug concentration, time course: 0
[1]; Liver, 3h
  Drug concentration, time course: 1100
[1]; Liver, 6h
  Drug concentration, time course: 850
[1]; Liver, 9h
  Drug concentration, time course: 400
[1]; Liver, 12h
  Drug concentration, time course: 50
[1]; Liver, 15h
  Drug concentration, time course: 0
[1]; Liver, 18h
  Drug concentration, time course: 0
[1]; Liver, 21h
  Drug concentration, time course: 0
[1]; Liver, 24h
  Drug concentration, time course: 0
[1]; Plasma, 0h
  Drug concentration, time course: 0
[1]; Plasma, 3h
  Drug concentration, time course: 500
[1]; Plasma, 6h
  Drug concentration, time course: 450
[1]; Plasma, 9h
  Drug concentration, time course: 200
[1]; Plasma, 12h
  Drug concentration, time course: 0
[1]; Plasma, 15h
  Drug concentration, time course: 0
[1]; Plasma, 18h
  Drug concentration, time course: 0
[1]; Plasma, 21h
  Drug concentration, time course: 0
[1]; Plasma, 24h
  Drug concentration, time course: 0
[2]; [3]
  Association with AKI, Unadjusted (95% CI): 0.87 (0.69–1.12)
  Association with AKI, Adjusted (95% CI): 0.76 (0.58–1.18)
[2]; [4]
  Association with AKI, Unadjusted (95% CI): 0.83 (0.68–1.14)
  Association with AKI, Adjusted (95% CI): 0.85 (0.67–1.18)
[2]
  Events During the 90 days (AKI): 57
  Total endpoint (AKI events): 277
  Events at secondary end (AKI): 220
  Total Percent (incidence rate of AKI at the end of the study): 5.58%

## CC#CCn1c(N2CCC[C@@H](N)C2)nc2c1c(=O)n(Cc1nc(C)c3ccccc3n1)c(=O)n2C [Linagliptin, linagliptin]
In vivo
  Tmax: 1 h
In vivo; 3 mg/kg
  Tmax: 1 h
In vivo; 3 mg/kg, Kidney
  Cmax: 6440 ng/mL
  half-life: 3.7 h
In vivo; 3 mg/kg, Liver
  Cmax: 5050 ng/mL
  half-life: 2.8 h
In vivo; 3 mg/kg, Plasma
  Cmax: 578 ng/mL
  half-life: 2.6 h
[1]; Kidney, 0h
  Drug concentration, time course: 0
[1]; Kidney, 3h
  Drug concentration, time course: 18,500
[1]; Kidney, 6h
  Drug concentration, time course: 12,800
[1]; Kidney, 9h
  Drug concentration, time course: 9500
[1]; Kidney, 12h
  Drug concentration, time course: 5400
[1]; Kidney, 15h
  Drug concentration, time course: 2500
[1]; Kidney, 18h
  Drug concentration, time course: 500
[1]; Kidney, 21h
  Drug concentration, time course: 0
[1]; Kidney, 24h
  Drug concentration, time course: 0
[1]; Liver, 0h
  Drug concentration, time course: 0
[1]; Liver, 3h
  Drug concentration, time course: 7500
[1]; Liver, 6h
  Drug concentration, time course: 6000
[1]; Liver, 9h
  Drug concentration, time course: 1200
[1]; Liver, 12h
  Drug concentration, time course: 300
[1]; Liver, 15h
  Drug concentration, time course: 50
[1]; Liver, 18h
  Drug concentration, time course: 0
[1]; Liver, 21h
  Drug concentration, time course: 0
[1]; Liver, 24h
  Drug concentration, time course: 0
[1]; Plasma, 0h
  Drug concentration, time course: 0
[1]; Plasma, 3h
  Drug concentration, time course: 450
[1]; Plasma, 6h
  Drug concentration, time course: 310
[1]; Plasma, 9h
  Drug concentration, time course: 50
[1]; Plasma, 12h
  Drug concentration, time course: 0
[1]; Plasma, 15h
  Drug concentration, time course: 0
[1]; Plasma, 18h
  Drug concentration, time course: 0
[1]; Plasma, 21h
  Drug concentration, time course: 0
[1]; Plasma, 24h
  Drug concentration, time course: 0
[2]; [3]
  Association with AKI, Unadjusted (95% CI): 0.97 (0.68–1.32)
  Association with AKI, Adjusted (95% CI): 0.86 (0.72–1.46)
[2]; [4]
  Association with AKI, Unadjusted (95% CI): 0.87 (0.72–1.21)
  Association with AKI, Adjusted (95% CI): 1.23 (0.73–1.65)
[2]
  Events During the 90 days (AKI): 56
  Total endpoint (AKI events): 284
  Events at secondary end (AKI): 228
  Total Percent (incidence rate of AKI at the end of the study): 5.72%

## N#C[C@@H]1CCCN1C(=O)CNC12CC3CC(CC(O)(C3)C1)C2 [Vildagliptin, vildagliptin]
In vivo
  Tmax: 0.5 h
In vivo; 3 mg/kg
  Tmax: 0.5 h
In vivo; 3 mg/kg, Kidney
  Cmax: 5870 ng/mL
In vivo; 3 mg/kg, Liver
  Cmax: 5030 ng/mL
In vivo; 3 mg/kg, Plasma
  Cmax: 765 ng/mL
[1]; Kidney, 0h
  Drug concentration, time course: 0
[1]; Kidney, 3h
  Drug concentration, time course: 4500
[1]; Kidney, 6h
  Drug concentration, time course: 3950
[1]; Kidney, 9h
  Drug concentration, time course: 1650
[1]; Kidney, 12h
  Drug concentration, time course: 100
[1]; Kidney, 15h
  Drug concentration, time course: 25
[1]; Kidney, 18h
  Drug concentration, time course: 0
[1]; Kidney, 21h
  Drug concentration, time course: 0
[1]; Kidney, 24h
  Drug concentration, time course: 0
[1]; Liver, 0h
  Drug concentration, time course: 0
[1]; Liver, 3h
  Drug concentration, time course: 8300
[1]; Liver, 6h
  Drug concentration, time course: 4800
[1]; Liver, 9h
  Drug concentration, time course: 2900
[1]; Liver, 12h
  Drug concentration, time course: 300
[1]; Liver, 15h
  Drug concentration, time course: 50
[1]; Liver, 18h
  Drug concentration, time course: 0
[1]; Liver, 21h
  Drug concentration, time course: 0
[1]; Liver, 24h
  Drug concentration, time course: 0
[1]; Plasma, 0h
  Drug concentration, time course: 0
[1]; Plasma, 3h
  Drug concentration, time course: 7500
[1]; Plasma, 6h
  Drug concentration, time course: 3000
[1]; Plasma, 9h
  Drug concentration, time course: 1200
[1]; Plasma, 12h
  Drug concentration, time course: 600
[1]; Plasma, 15h
  Drug concentration, time course: 200
[1]; Plasma, 18h
  Drug concentration, time course: 0
[1]; Plasma, 21h
  Drug concentration, time course: 0
[1]; Plasma, 24h
  Drug concentration, time course: 0
[2]; [3]
  Association with AKI, Unadjusted (95% CI): 1.23 (0.97–1.32)
  Association with AKI, Adjusted (95% CI): 1.18 (0.92–1.35)
[2]; [4]
  Association with AKI, Unadjusted (95% CI): 1.20 (0.72–1.38)
  Association with AKI, Adjusted (95% CI): 1.07 (0.95–1.45)
[2]
  Events During the 90 days (AKI): 79
  Total endpoint (AKI events): 316
  Events at secondary end (AKI): 237
  Total Percent (incidence rate of AKI at the end of the study): 6.36%
